Data taken from ChEMBL document CHEMBL5375996, “Discovery of Orally Available and Brain Penetrant AEP Inhibitors” (J Med Chem, 2023).

Columns and labels:
physchem = conditions: octanol/water
in vitro = conditions: PAMPA

| Compound | logD (physchem) | Papp (in vitro) [×10⁻⁶ cm/s] |
| --- | --- | --- |
| C#C[C@H](CC(N)=O)NC(=O)[C@@H]1CCCN1C(=O)[C@]1(c2ccc(OC(F)(F)F)cc2)C[C@@H](F)C1 | 2.1 |  |
| N#C[C@H](CC(N)=O)NC(=O)[C@@H]1CCCN1C(=O)C1(c2ccc(F)cc2)CC1 | 0.5 | 2.9 |
| NC(=O)CN(NC(=O)[C@@H]1CCCN1C(=O)C1(c2ccc(OC(F)(F)F)cc2)CC1)C(=O)CCl | 1.9 |  |
| N#C[C@H](CC(N)=O)NC(=O)[C@@H]1CCCN1C(=O)Cc1ccccc1 |  | 2.7 |

Second part, the molecule after the results:

| logD (physchem) | Papp (in vitro) [×10⁻⁶ cm/s] | Compound |
| --- | --- | --- |
| 2.3 | 1.5 | C#C[C@H](CC(N)=O)NC(=O)[C@@H]1C[C@H](C)CN1C(=O)C1(c2ccc(OC(F)(F)F)cc2)CC1 |
| 1.7 |  | C#C[C@H](CC(N)=O)NC(=O)[C@@H]1CCCN1C(=O)[C@]1(c2ccc(OC(F)(F)F)cc2)C[C@H](F)C1 |
| 2.2 | 2.8 | C#C[C@H](CC(N)=O)NC(=O)[C@@H]1C[C@@H](C)CN1C(=O)C1(c2ccc(OC(F)(F)F)cc2)CC1 |
